Read-outs that look alike come from different tables or passages of the source.
What was measured:
[1] = system: hCMEC; assay: TS DPH hCMEC (Table S2); format: cell-based, human; parameters: scale not given here
[2] = molecular target: MATE2K (Homo sapiens, UniProt Q86VL8); assay: Uptake ratio in MATE2K-overexpressing HEK293 cells vs empty vector (2.5 μM, 1 min, HPLC-MS/MS); format: cell-based; parameters: key to MATE2 substrate*: 1 = substrate; 0 = no substrate
[3] = molecular target: T1, MATE1 (Homo sapiens, UniProt Q96FL8); assay: Uptake ratio in MATE1-overexpressing HEK293 cells vs empty vector (2.5 μM, 1 min, HPLC-MS/MS); format: cell-based; parameters: key to MATE1 substrate*: 1 = substrate; 0 = no substrate
T1 sequence (Q96FL8 1-570): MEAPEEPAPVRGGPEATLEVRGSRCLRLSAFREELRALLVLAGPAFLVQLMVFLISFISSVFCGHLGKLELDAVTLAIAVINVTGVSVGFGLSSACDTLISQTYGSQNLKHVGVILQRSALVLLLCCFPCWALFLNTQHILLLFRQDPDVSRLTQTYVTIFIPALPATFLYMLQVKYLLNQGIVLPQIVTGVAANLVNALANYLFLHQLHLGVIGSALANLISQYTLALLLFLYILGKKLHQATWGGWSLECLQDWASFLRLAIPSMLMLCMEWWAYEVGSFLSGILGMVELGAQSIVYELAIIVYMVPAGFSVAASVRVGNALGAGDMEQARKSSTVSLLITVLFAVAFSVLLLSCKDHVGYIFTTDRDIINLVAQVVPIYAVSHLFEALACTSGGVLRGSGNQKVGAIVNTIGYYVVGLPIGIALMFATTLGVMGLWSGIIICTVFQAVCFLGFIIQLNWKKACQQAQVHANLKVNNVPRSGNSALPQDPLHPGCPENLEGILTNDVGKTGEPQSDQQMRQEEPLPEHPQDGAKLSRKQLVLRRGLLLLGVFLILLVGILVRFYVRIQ

[4] = fold uptake over empty vector, 2.5 μM, 1 min
[5] = uptake ratio MATE2K-overexpressing vs empty-vector HEK293 cells, 2.5 μM, 1 min, mean
[6] = uptake ratio MATE1-overexpressing vs empty-vector HEK293 cells, 2.5 μM, 1 min, mean

Sequence of MATE2K (Q86VL8 1-566 isoform Q86VL8-3): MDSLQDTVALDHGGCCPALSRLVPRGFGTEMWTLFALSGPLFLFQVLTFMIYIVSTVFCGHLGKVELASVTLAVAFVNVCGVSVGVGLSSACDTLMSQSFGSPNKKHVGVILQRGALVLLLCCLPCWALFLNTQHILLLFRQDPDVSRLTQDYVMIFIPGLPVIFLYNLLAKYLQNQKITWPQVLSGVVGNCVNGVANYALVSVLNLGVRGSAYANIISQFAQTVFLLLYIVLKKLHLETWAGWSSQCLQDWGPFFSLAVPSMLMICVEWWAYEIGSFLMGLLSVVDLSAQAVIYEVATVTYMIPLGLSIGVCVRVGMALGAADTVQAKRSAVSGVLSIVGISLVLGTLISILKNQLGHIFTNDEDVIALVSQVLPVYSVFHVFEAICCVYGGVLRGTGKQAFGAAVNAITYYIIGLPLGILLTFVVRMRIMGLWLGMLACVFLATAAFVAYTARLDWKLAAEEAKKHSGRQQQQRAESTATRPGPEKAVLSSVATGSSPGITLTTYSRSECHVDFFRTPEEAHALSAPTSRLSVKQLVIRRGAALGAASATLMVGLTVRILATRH

## COc1cc(CC(C)N)c(OC)cc1I (stereo not drawn) [2,5-Dimethoxy-4-iodoamphetamine]
[1]
  TS DPH hCMEC: 0.18

## COc1cc2nc(N(C)CCCNC(=O)C3CCCO3)nc(N)c2cc1OC (stereo not drawn) [Alfuzosine]
[1]; Table S2
  TS DPH hCMEC: 0.86

## CC(N)Cc1ccccc1 (stereo not drawn) [Amphetamine]
[1]
  TS DPH hCMEC: 0.05

## COC(=O)[C@H]1[C@@H](OC(=O)c2ccccc2)C[C@@H]2CC[C@H]1N2C [Cocaine]
[1]
  TS DPH hCMEC: 0.16

## COc1cc(CCN)cc(OC)c1OC [Mescaline]
[1]
  TS DPH hCMEC: 0.41

## CN[C@@H](C)Cc1ccccc1 [Metamfetamine]
[1]
  TS DPH hCMEC: 0.05

## CC(C)(N)Cc1ccccc1 [Phentermine]
[1]
  TS DPH hCMEC: 0.02

## CCN(CC)CCNC(=O)c1ccc(NS(C)(=O)=O)cc1 [Sematilide]
[2]; [4]
  MATE2K ratio: 6.42
[2]; [5]
  MATE2: 6.42
[3]; [4]
  MATE1 ratio: 19.10
[3]; [6]
  MATE1: 19.1

## NCCc1c[nH]c2ccc(O)cc12 [Serotonin]
[2]
  MATE2: 2.26
  MATE2K ratio: 2.26
[3]; [4]
  MATE1 ratio: 12.11
[3]; [6]
  MATE1: 12.11

## CN[C@H]1CC[C@@H](c2ccc(Cl)c(Cl)c2)c2ccccc21 [Sertraline]
[2]; [4]
  MATE2K ratio: 1.10
[2]; [5]
  MATE2: 1.1
[3]; [4]
  MATE1 ratio: 1.28
[3]; [6]
  MATE1: 1.28

## C1CCN2C[C@@H]3C[C@@H](CN4CCCC[C@@H]34)[C@H]2C1 [Sparteine (+), Sparteine]
[2]
  MATE2: 1.31
  MATE2K ratio: 1.31
[3]
  MATE1: 1.62
  MATE1 ratio: 1.62

## C1CCN2C[C@H]3C[C@H](CN4CCCC[C@@H]34)[C@H]2C1 [Sparteine (-), Sparteine]
[2]
  MATE2: 1.66
  MATE2K ratio: 1.66
  MATE2K ratio in this study: 1.66
[3]
  MATE1: 2.12
  MATE1 ratio: 2.12
  MATE1 ratio in this study: 2.12

## NCCCCNCCCN [Spermidine]
[2]; [4]
  MATE2K ratio: 0.55
[2]; [5]
  MATE2: 0.55
[3]; [4]
  MATE1 ratio: 0.63
[3]; [6]
  MATE1: 0.63

## NCCCNCCCCNCCCN [Spermine]
[2]; [4]
  MATE2K ratio: 1.25
[2]; [5]
  MATE2: 1.25
[3]; [4]
  MATE1 ratio: 1.13
[3]; [6]
  MATE1: 1.13

## C[N+]1(C)CCC[C@H]1C(=O)[O-] [Stachydrine]
[2]; [4]
  MATE2K ratio: 1.31
[2]; [5]
  MATE2: 1.31
[3]; [4]
  MATE1 ratio: 0.83
[3]; [6]
  MATE1: 0.83

## C[N+](C)(C)C[C@@H](CC(=O)[O-])OC(=O)CCC(=O)O [Succinylcarnitine]
[2]; [4]
  MATE2K ratio: 1.38
[2]; [5]
  MATE2: 1.38
[3]; [4]
  MATE1 ratio: 0.54
[3]; [6]
  MATE1: 0.54

## CNCC(O)c1ccc(O)cc1.CNCC(O)c1ccc(O)cc1.O=C(O)C(O)C(O)C(=O)O (stereo not drawn) [Synephrine]
[2]
  MATE2: 1.04
[3]
  MATE1: 6.5

## Cn1nnc2c(C(N)=O)ncn2c1=O [Temozolomide]
[2]; [5]
  MATE2: 1.1
[3]; [6]
  MATE1: 1.03

## CC(C)(C)NCC(O)c1cc(O)cc(O)c1 (stereo not drawn) [Terbutaline]
[2]; [5]
  MATE2: 7.04
[3]; [6]
  MATE1: 6.74

## CC(C)(C)c1ccc(C(O)CCCN2CCC(C(O)(c3ccccc3)c3ccccc3)CC2)cc1 (stereo not drawn) [Terfenadine]
[2]; [5]
  MATE2: 0.93
[3]; [6]
  MATE1: 1.07

## CCCCNc1ccc(C(=O)OCCN(C)C)cc1 [Tetracaine]
[2]; [5]
  MATE2: 1.3
[3]; [6]
  MATE1: 1.12

## CC[N+](CC)(CC)CC [Tetraethyl ammonium (TEA), Tetraethyl ammonium]
[2]
  MATE2K ratio in this study: 6.73
[3]
  MATE1 ratio in this study: 25.44

## CC[N+](CC)(CC)CC [Tetraethylammonium]
[2]
  MATE2: 6.73
[3]
  MATE1: 25.44

## O=C1CCC(N2C(=O)c3ccccc3C2=O)C(=O)N1 (stereo not drawn) [Thalidomide]
[2]; [5]
  MATE2: 2.02
[3]; [6]
  MATE1: 0.85

## Cc1ncc(C[n+]2csc(CCOP(=O)(O)O)c2C)c(N)n1 [Thiamine monophosphate]
[2]; [5]
  MATE2: 0.89
[3]; [6]
  MATE1: 1.05

## C/C=C(\C)C(=O)OC(CC(=O)[O-])C[N+](C)(C)C (stereo not drawn) [Tiglylcarnitine]
[2]; [5]
  MATE2: 0.76
[3]; [6]
  MATE1: 0.96

## C[C@@H]1CCN(C(=O)CC#N)C[C@@H]1N(C)c1ncnc2[nH]ccc12 [Tofacitinib]
[2]; Table S1, 2.5 μM, 1 min
  MATE2K ratio in this study: 1.41
[2]; [5]
  MATE2: 1.41
[3]; Table S1, 2.5 μM, 1 min
  MATE1 ratio in this study: 1.36
[3]; [6]
  MATE1: 1.36

## COc1cccc(C2(O)CCCCC2CN(C)C)c1 (stereo not drawn) [Tramadol]
[2]
  MATE2: 1.44
[3]
  MATE1: 1.13

## CC(CN(C)C)CN1c2ccccc2CCc2ccccc21 (stereo not drawn) [Trimipramine]
[2]; [5]
  MATE2: 1.2
[3]; [6]
  MATE1: 1.19

## CN1[C@@H]2CC[C@H]1C[C@@H](OC(=O)c1c[nH]c3ccccc13)C2 [Tropisetron]
[2]; [5]
  MATE2: 1.15
[3]; [6]
  MATE1: 1.22

## N[C@@H](Cc1c[nH]c2ccccc12)C(=O)O [Tryptophan]
[2]
  MATE2: 1.07
[3]
  MATE1: 0.82

## CC(C)(C)NCC(O)c1ccccc1Cl (stereo not drawn) [Tulobuterol]
[2]; [5]
  MATE2: 1.74
[3]; [6]
  MATE1: 1.31

## OC(c1ccccc1)(c1ccccc1)C12CC[N+](CCOCc3ccccc3)(CC1)CC2 [Umeclidinium]
[2]; [5]
  MATE2: 1.67
[3]; [6]
  MATE1: 4.54

## CC[C@@H]1CN(C(=O)NCC(F)(F)F)C[C@@H]1c1cnc2cnc3[nH]ccc3n12 [Upadacitinib]
[2]; [5]
  MATE2: 1.27
[3]; [6]
  MATE1: 1.51

## COc1ccccc1N1CCN(CCCNc2cc(=O)n(C)c(=O)n2C)CC1 [Urapidil]
[2]; [5]
  MATE2: 1.17
[3]; [6]
  MATE1: 1.19

## c1cnc2cc3c(cc2n1)[C@@H]1CNC[C@H]3C1 [Varenicline]
[2]; Table S1, 2.5 μM, 1 min
  MATE2K ratio in this study: 1.30
[2]; [5]
  MATE2: 1.3
[3]; Table S1, 2.5 μM, 1 min
  MATE1 ratio in this study: 1.20
[3]; [6]
  MATE1: 1.2

## CC(=O)O[C@H]1C[C@@H]2CC[C@@H]3[C@H](CC[C@@]4(C)[C@H]3C[C@H]([N+]3(C)CCCCC3)[C@@H]4OC(C)=O)[C@@]2(C)C[C@@H]1N1CCCCC1 [Vecuronium]
[2]
  MATE2: 4.72
[3]
  MATE1: 8.32

## COc1ccc([C@H](CN(C)C)C2(O)CCCCC2)cc1 [Venlafaxine (R)]
[2]
  MATE2: 1.36
[3]
  MATE1: 1.14

## COc1ccc([C@@H](CN(C)C)C2(O)CCCCC2)cc1 [Venlafaxine (S)]
[2]
  MATE2: 1.44
[3]
  MATE1: 1.22

## COc1ccc(C(CN(C)C)C2(O)CCCCC2)cc1 (stereo not drawn) [Venlafaxine]
[2]
  MATE2: 1.3
[3]
  MATE1: 1.22

## C=CCN1CCCC1CNC(=O)c1cc(S(N)(=O)=O)cc(OC)c1OC (stereo not drawn) [Veralipride]
[2]; [5]
  MATE2: 4.21
[3]; [6]
  MATE1: 6.39

## CCOc1ccccc1OCC1CNCCO1 (stereo not drawn) [Viloxazine]
[2]
  MATE2: 1.38
[3]
  MATE1: 1.12

## O=C(NCCNCC(O)COc1ccc(O)cc1)N1CCOCC1 (stereo not drawn) [Xamoterol]
[2]; [5]
  MATE2: 6.13
[3]; [6]
  MATE1: 7.62

## COC(=O)[C@@H]1[C@H]2C[C@H]3c4[nH]c5ccccc5c4CCN3C[C@@H]2CC[C@@H]1O [Yohimbin]
[2]; [5]
  MATE2: 1.35
[3]; [6]
  MATE1: 1.11

## O=c1ncccn1[C@@H]1O[C@H](CO)[C@@H](O)[C@H]1O [Zebularine]
[2]; Table S4
  MATE2 substrate*: 0
[2]; [5]
  MATE2: 0.9
[3]; Table S4
  MATE1 substrate*: 0
[3]; [6]
  MATE1: 1.12

## NC(N)=NCc1cccc(I)c1 [m-Iodobenzylguanidin]
[2]; [4]
  MATE2K ratio: 2.28
[3]; [4]
  MATE1 ratio: 3.53

## NCCc1cccc(O)c1 [m-Tyramine]
[2]; [4]
  MATE2K ratio: 1.31
[3]; [4]
  MATE1 ratio: 8.90

## Nc1ccc(N)cc1 [p-Phenylenediamine]
[2]
  MATE2K ratio: 1.07
[3]
  MATE1 ratio: 1.04

## C[N+]1(C)[C@@H]2C[C@@H](OC(=O)C(O)(c3cccs3)c3cccs3)C[C@H]1[C@@H]1O[C@@H]12 [tiotropium]
[2]
  MATE2: 1.94
[3]
  MATE1: 27.4
